Assay results taken from ChEMBL document CHEMBL3885881, “DrugMatrix”.

Species: Rattus norvegicus
Experiment: DrugMatrix - Regimen: Daily Repeat
Assay type: toxicity, organism-based, Sprague-Dawley
Parameters: regimen Daily Repeat, gender Male, age 6-8 weeks
Settings: in vivo, po, route oral GAVAGE, […]; for ABSOLUTE BASOPHIL / ABSOLUTE EOSINOPHIL / ABSOLUTE LYMPHOCYTE / ABSOLUTE MONOCYTE / ABSOLUTE SEGMENTED NEUTROPHIL / BASOPHIL / EOSINOPHIL / ERYTHROCYTE COUNT / HEMATOCRIT / HEMOGLOBIN / LEUKOCYTE COUNT / LYMPHOCYTE / MEAN CORPUSCULAR HEMOGLOBIN / MEAN CORPUSCULAR HEMOGLOBIN CONCENTRATION / MEAN CORPUSCULAR VOLUME / MONOCYTE / NEUTROPHIL / NUCLEATED RED BLOOD CELLS / PLATELET COUNT: tissue Blood; for ALANINE AMINOTRANSFERASE / ALBUMIN / ALKALINE PHOSPHATASE / ASPARTATE AMINOTRANSFERASE / BLOOD UREA NITROGEN / CARBON DIOXIDE / CHLORIDE / CHOLESTEROL / CREATINE PHOSPHOKINASE / CREATININE / GLUCOSE / LACTATE DEHYDROGENASE / LIPASE / PHOSPHORUS / POTASSIUM / SODIUM / TOTAL BILIRUBIN / TOTAL PROTEIN / URIC ACID: tissue Plasma
[1] = 0 mg/kg, 72 h, dose level Control, time 3 day
[2] = 0 mg/kg, 120 h, dose level Control, time 5 day
[3] = 5 mg/kg, 72 h, dose level Low, time 3 day

CC(C)n1c(/C=C/C(O)CC(O)CC(=O)O)c(-c2ccc(F)cc2)c2ccccc21 (centres undefined) [FLUVASTATIN]
ABSOLUTE BASOPHIL [1]: 0 CELLS/uL
ABSOLUTE EOSINOPHIL [1]: 33 CELLS/uL
ABSOLUTE LYMPHOCYTE [1]: 9048.5 CELLS/uL
ABSOLUTE MONOCYTE [1]: 80.17 CELLS/uL
ABSOLUTE SEGMENTED NEUTROPHIL [1]: 1521.67 CELLS/uL
BASOPHIL [1]: 0%
EOSINOPHIL [1]: 0.17%
ERYTHROCYTE COUNT [1]: 5.46 x10E6/uL
HEMATOCRIT [1]: 32.87%
HEMOGLOBIN [1]: 12.95 G/DL
LEUKOCYTE COUNT [1]: 10.68 x10E3/uL
LYMPHOCYTE [1]: 86.67%
MEAN CORPUSCULAR HEMOGLOBIN [1]: 23.72 pg
MEAN CORPUSCULAR HEMOGLOBIN CONCENTRATION [1]: 39.4 G/DL
MEAN CORPUSCULAR VOLUME [1]: 60.18 fL
MONOCYTE [1]: 0.83%
NEUTROPHIL [1]: 12.33%
NUCLEATED RED BLOOD CELLS [1]: 0 /100WBC
PLATELET COUNT [1]: 1211.33 x10E3/uL
ALANINE AMINOTRANSFERASE [1]: 76.67 u/L
ALBUMIN [1]: 3.93 G/DL
ALKALINE PHOSPHATASE [1]: 317.17 u/L
ASPARTATE AMINOTRANSFERASE [1]: 81.17 u/L
BLOOD UREA NITROGEN [1]: 12.33 mg/dL
CARBON DIOXIDE [1]: 31.17 mmol/L
CHLORIDE [1]: 98.33 MEQ/L
CHOLESTEROL [1]: 67.17 mg/dL
CREATINE PHOSPHOKINASE [1]: 312.33 u/L
CREATININE [1]: 0.19 mg/dL
GLUCOSE [1]: 165.5 mg/dL
LACTATE DEHYDROGENASE [1]: 94.5 u/L
LIPASE [1]: 9.83 u/L
PHOSPHORUS [1]: 10.1 mg/dL
POTASSIUM [1]: 5.16 MEQ/L
SODIUM [1]: 143.02 MEQ/L
TOTAL BILIRUBIN [1]: 0.2 mg/dL
TOTAL PROTEIN [1]: 5.88 G/DL
URIC ACID [1]: 0.68 mg/dL
ABSOLUTE BASOPHIL [2]: 0 CELLS/uL
ABSOLUTE EOSINOPHIL [2]: 14.67 CELLS/uL
ABSOLUTE LYMPHOCYTE [2]: 9629.83 CELLS/uL
ABSOLUTE MONOCYTE [2]: 72.5 CELLS/uL
ABSOLUTE SEGMENTED NEUTROPHIL [2]: 1049.67 CELLS/uL
BASOPHIL [2]: 0%
EOSINOPHIL [2]: 0.17%
ERYTHROCYTE COUNT [2]: 5.36 x10E6/uL
HEMATOCRIT [2]: 33.82%
HEMOGLOBIN [2]: 13.48 G/DL
LEUKOCYTE COUNT [2]: 10.77 x10E3/uL
LYMPHOCYTE [2]: 90.17%
MEAN CORPUSCULAR HEMOGLOBIN [2]: 25.28 pg
MEAN CORPUSCULAR HEMOGLOBIN CONCENTRATION [2]: 39.92 G/DL
MEAN CORPUSCULAR VOLUME [2]: 63.3 fL
MONOCYTE [2]: 0.67%
NEUTROPHIL [2]: 9%
NUCLEATED RED BLOOD CELLS [2]: 0.17 /100WBC
PLATELET COUNT [2]: 1275.33 x10E3/uL
ALANINE AMINOTRANSFERASE [2]: 93.67 u/L
ALBUMIN [2]: 4.17 G/DL
ALKALINE PHOSPHATASE [2]: 402.5 u/L
ASPARTATE AMINOTRANSFERASE [2]: 122.83 u/L
BLOOD UREA NITROGEN [2]: 14.75 mg/dL
CARBON DIOXIDE [2]: 26.4 mmol/L
CHLORIDE [2]: 98.5 MEQ/L
CHOLESTEROL [2]: 57.5 mg/dL
CREATINE PHOSPHOKINASE [2]: 305.17 u/L
CREATININE [2]: 0.21 mg/dL
GLUCOSE [2]: 142 mg/dL
LACTATE DEHYDROGENASE [2]: 83.5 u/L
LIPASE [2]: 85.83 u/L
PHOSPHORUS [2]: 8.18 mg/dL
POTASSIUM [2]: 5.46 MEQ/L
SODIUM [2]: 144 MEQ/L
TOTAL BILIRUBIN [2]: 0.25 mg/dL
TOTAL PROTEIN [2]: 5.63 G/DL
URIC ACID [2]: 0.8 mg/dL
ABSOLUTE BASOPHIL [3]: 0 CELLS/uL
ABSOLUTE EOSINOPHIL [3]: 0 CELLS/uL
ABSOLUTE LYMPHOCYTE [3]: 7777.67 CELLS/uL
ABSOLUTE MONOCYTE [3]: 91 CELLS/uL
ABSOLUTE SEGMENTED NEUTROPHIL [3]: 864.67 CELLS/uL
BASOPHIL [3]: 0%
EOSINOPHIL [3]: 0%
ERYTHROCYTE COUNT [3]: 5.27 x10E6/uL
HEMATOCRIT [3]: 32.97%
HEMOGLOBIN [3]: 13.1 G/DL
LEUKOCYTE COUNT [3]: 8.73 x10E3/uL
LYMPHOCYTE [3]: 89%
MEAN CORPUSCULAR HEMOGLOBIN [3]: 24.87 pg
MEAN CORPUSCULAR HEMOGLOBIN CONCENTRATION [3]: 39.77 G/DL
MEAN CORPUSCULAR VOLUME [3]: 62.47 fL
MONOCYTE [3]: 1%
NEUTROPHIL [3]: 10%
NUCLEATED RED BLOOD CELLS [3]: 0 /100WBC
PLATELET COUNT [3]: 1163 x10E3/uL
ALANINE AMINOTRANSFERASE [3]: 67 u/L
ALBUMIN [3]: 3.93 G/DL
ALKALINE PHOSPHATASE [3]: 305.67 u/L
ASPARTATE AMINOTRANSFERASE [3]: 95.33 u/L
BLOOD UREA NITROGEN [3]: 12 mg/dL
CARBON DIOXIDE [3]: 30.67 mmol/L
CHLORIDE [3]: 98 MEQ/L
CHOLESTEROL [3]: 76 mg/dL
CREATINE PHOSPHOKINASE [3]: 453.67 u/L
CREATININE [3]: 0.18 mg/dL
GLUCOSE [3]: 193.33 mg/dL
LACTATE DEHYDROGENASE [3]: 209.33 u/L
LIPASE [3]: 9.67 u/L
PHOSPHORUS [3]: 10.07 mg/dL
POTASSIUM [3]: 5.48 MEQ/L
SODIUM [3]: 142.9 MEQ/L
TOTAL BILIRUBIN [3]: 0.2 mg/dL
TOTAL PROTEIN [3]: 5.8 G/DL
URIC ACID [3]: 0.63 mg/dL
